Data: patent publication US20210221791A1, “COMPOUNDS” (UNIVERSITETET I OSLO, priority 2016, published 2021)
“And” between values parts separate entries of the source, which are not always exact repeats. Equal entries are not always repeated. “Also recorded” adds a separate entry of the source. Structures can show the parent of a compound that is named as a salt. Where two headings read alike, the source gives them in different places.

Experiments:
[1] = system: C. freundii harboring an MBL; experiment: MIC of meropenem on strains harboring an MBL (Example 198); format: cell-based; conditions: C. freundii (NDM)
[2] = system: P. stuartii harboring an MBL; experiment: as above; format: cell-based; conditions: P. stuartii (NDM)
[3] = system: K. pneumoniae harboring an MBL; experiment: as above; format: cell-based; conditions: K. pneumoniae (NDM); each table line a different strain
K. pneumoniae K66-45 = format: cell-based; conditions: inhibitor 25 mg/L
Method: After plating and grown overnight at 37° C., only single colonies, ignoring any touching the edges of the plate, were counted.
10^9 CFU K66-45 (Mueller-Hinton broth, no selection) was plated and grown overnight, 37° C. Only single colonies, ignoring any touching the edges of the plate, were counted.

[4] = Solution stability measured indirectly by MIC studies; format: physicochemical; conditions: stored up to 8 months at 2-8° C.; 25 mg/L inhibitor; P. aeruginosa VIM-2 and K. pneumonia NDM-1
Description: P. aeruginosa harboring VIM-2 and K. pneumonia bearing NDM-1 was used as two indicator strains.

[5] = system: resistant gram-negative MBL-based bacteria; experiment: MICx: lowest adjuvant concentration giving carbapenem MIC ≤2 mg/L; format: cell-based; conditions: 25 mg/L Example 26; K66-45 and K34-7; meropenem and doripenem
[6] = system: K. pneumoniae K66-45 (NDM-1); experiment: Microbroth dilution MIC of carbapenem with/without inhibitor; format: cell-based; conditions: K. pneumoniae NDM-1
Method: • Plate bacterial strain(s) on appropriate media: • Gram-negative bacteria with ESBLs or carbapenemases: green agar plates with 100 mg/L ampicillin • Gram-negative bacteria without β-lactamases: green agar plates • Gram-positive bacteria (Staphylococci and Enterococci): blood agar plates • Incubate o.n. at 37° C.
(Should be used within 15 min of preparation). • Dilute the 0.5 McFarland suspension 1:100 into MH broth. […] Plate 10 μl of the dilution on MH agar plates (×2). Incubate o.n. at 37° C., count the colonies and calculate the final CFU/ml inoculum in the plate by multiplying the average number of colonies with 10000 and divide by 2. The final inoculum should be between 3-7×10^5 CFU/ml. • Add 50 μl of the prepared bacterial suspension to each well in the microtiter plate except negative growth control.
• Calculate the desired concentration-range and volume of the compounds/antibiotics in the assay. […] Dilute the stock solution in MH broth. Make subsequent 2-fold dilutions in MH broth of the desired concentrations if a concentration range is to be tested (remember the extra dilution factor in the assay plate). Always include extra volume for pipetting. Take into consideration stock solutions that are made in buffers that have an effect on bacterial growth (e.g. DMSO).

[7] = system: meropenem-resistant E. coli; experiment: Checkerboard MIC assay of Example 26 and meropenem; format: cell-based; conditions: for some of the E. coli / K. pneumonia strains
Method: A checkerboard MIC assay was using the broth dilution method according to CLSI guidelines. […] Dilutions to 4 mg/ml was performed by adding+4.75 ml sterile saline to 0.25 ml of the stock solution, and dilutions to 512 μg/ml was performed by adding 10.9 ml MH-broth to the 4 mg/ml solution. Inoculums of bacterial strains as described in Table 4 were prepared by suspending fresh overnight colonies from 5% horse blood agar were to a turbidity of 0.5 McFarland and further diluted to 1×10^6 CFU/ml in MH-broth. Aliquots of 50 μl of MH-broth were added to each well of polystyrene microtiter plates. […] The plates were incubated at 35° C., 16-20 hours.

[8] = system: resistant clinical isolate of Klebsiella pneumoniae harboring NDM-1; experiment: Time-kill study with meropenem; format: cell-based; conditions: Example 26 + 4 mg/L meropenem, irrespective of Example 26 concentration; stays below LOD for 30 hrs
Method: Mueller-Hinton broth (MHB) was warmed from fridge temperature cold. […] A sample of Example 26 was dissolved in DMSO.
The 96-well plates were prepared using a multi-channel pipette, adding […] PBS to columns 2-9, or the required number of dilutions needed in the experiment. Each Inoculum was prepared by picking a single colony from the fresh plate that was disperged into 1 mL MHB, the loop was agitated to ensure all the colony comes off the loop. The tube was Vortex mixed, and a 100 μL aliquot was taken from the tube into 9.9 mL of MHB into the media bottle. […] The procedure was repeated for as many samples needed in the study. Aliquots of 5 mL inoculum were transferred to as many media bottles as needed, e.g. 4 mg/L MEM, 4 mg/L MEM+50 μM test substance, 4 mg/L MEM+100 μM test substance. Then […] aliquots were taken from each culture and added to Column 1 on the 96 well plate, e.g. culture 1: 50 μl into A1, […] into B1 etc. for time point 0 h. Then […] MEM was added into each bottle, followed by the required amount of test substance. The bottles were mixed gently to avoid formation of bubbles, and incubated in a secondary container at 37° C. at 180 rpm. Finally, serial dilutions were performed using multi-channel pipette taking 30 μL for column 1, adding to column 2, mixing well, repeating from column 2 to 3 with clean pipette tips.

VIM-2 = VIM-2 (Escherichia coli, UniProt Q5U7L7); format: biochemical
Method: The eluent used was Chelex-treated HEPES 50 mM buffer, pH 7.5. […] In all experiments, 16 aliquots of 250 μL were taken from the PD-10 column runsout and enzyme activity was analysed. Enzyme activity was measured by adding Nitrocefin as a reporter substrate (final concentration of 50 μM).
To investigate if more extreme time-dependent and concentration-dependent conditions could restore enzyme activity, aliquots having final concentrations of 30 nM column-treated enzyme and 1000 μM Zn^2+ on ice and at room temperature over prolonged time.

rH glyoxylase II = rH glyoxylase II (Homo sapiens, UniProt Q16775); experiment: Interaction with zinc-containing human enzyme; format: biochemical; conditions: 62.5-500 μM, 30 min, 25° C., 0.4 ng/μL enzyme
Method: The initial reaction velocity was measured at 405 nm. EDTA was included as a representative example of the APC chelator class described above.

[9] = system: Klebsiella pneumoniae strain 50752501 harbouring NDM-1; experiment: In vivo infection study in neutropenic mice; set-up: species or system Klebsiella pneumoniae; host NMRI mice; conditions: for Score at sampling: sampling T = 5 h; for lower CFU levels compared to vehicle treatment: combination Example 26 (10-100 mg/kg) and meropenem 33 mg/kg
Method: The purpose of this study was to investigate the synergy between a typical example of the present invention and a state of art carbapenem in a clinically relevant multiresistant Gram-negative bacterial strain harboring a metallo-β-lactamase in the treatment of live mice infected with the bacterial strain.
The mice were rendered neutropenic by injecting 0.5 ml cyclophosphamide solution intraperitoneally 4 days (approximately 200 mg/kg) and 1 day (approximately 100 mg/kg) prior to inoculation.
Fresh overnight colonies from a 5% Horse Blood Agar plate were suspended and diluted in sterile saline to approximately and 10^7 CFU/ml. Mice were inoculated intraperitoneally with 0.5 ml of the suspension. Approximately ½ hr prior to inoculation, mice were treated orally with 45 μl neurophen (20 mg ibuprofen/ml corresponding to approximately 30 mg/kg) as a pain relief.
Mice were treated subcutaneously in the neck region with.
Colony counts were determined from blood and peritoneal fluid at 1 and 5 hrs post inoculation. […] The mice were sacrificed immediately after blood sampling and a total of 2 ml sterile saline was injected i.p. and the abdomen gently massaged before it was opened and fluid sampled with a pipette. Each sample was then 10 fold serial diluted in saline and 20-μl spots, ranging from undiluted to a 10^6 dilution, were applied on agar plates in duplicates. […] All agar plates were incubated 18-22 hrs at 35° C. in ambient air.

[10] = system: strains producing Klebsiella pneumoniae carbapenemases (KPC); experiment: Adjuvant activity with a carbapenem against KPC producers; format: cell-based; conditions: adjuvant together with a carbapenem
[11] = system: human serum albumin and α1-acid glycoprotein (AGP); conditions: 500 μM Example 26; HSA:AGP 24:1 up to 140 μM
Method: Enzymes in the kit are immobilized at a solid phase. […] Buffer without inhibitor was included as a control. After incubation, the suspensions were centrifuged and diluted 1:10 in 50 mM HEPES buffer pH 7.5 supplemented with 1 μM zinc^2+ and VIM-2 (final concentration 1 nM).

## C[C@@H](N)C(=O)N[C@H](C)C(=O)NCCc1ccc(NC(=O)c2ccc(CN(Cc3ccccn3)Cc3ccccn3)nc2)cc1 [Example 195, N-(4-(2-((R)-2-((R)-2-aminopropanamido)propanamido)ethyl)phenyl)-6-((bis(pyridin-2-ylmethyl)amino)methyl)nicotinamide hydrochloride, reference compound]
[1]
  MIC meropenem + 25 mg/L Example 26 / Example 195: 0.06 µg/mL
[2]
  MIC meropenem + 25 mg/L Example 26 / Example 195: 0.25 µg/mL
[3]
  MIC meropenem + 25 mg/L Example 26 / Example 195: 0.06 µg/mL
K. pneumoniae K66-45; MEM 2 mg/L
  RF - no of colonies: nc (n.c. = no colonies)
K. pneumoniae K66-45; MEM 4 mg/L
  RF - no of colonies: nc (n.c. = no colonies)
K. pneumoniae K66-45; MEM 8 mg/L
  RF - no of colonies: nc (n.c. = no colonies)
[4]
  solution stability (adjuvant activity in MIC studies after storage): a loss of activity was observed after 5 months storage, and after 8 months the activity was absent

## CN(C[C@H](O)[C@@H](O)[C@H](O)[C@H](O)CO)C(=O)c1ccc(CN(Cc2ccccn2)Cc2ccccn2)nc1 [Example 26, 6-((bis(pyridin-2-ylmethyl)amino)methyl)-N-methyl-N-((2S,3R,4R,5R)-2,3,4,5,6-pentahydroxyhexyl)nicotinamide]
[5]
  potentiates carbapenems with a factor: 32-256 times
[6]; doripenem (DOR) + 25 mg/L Example 26, batches 1-3
  MIC Value in K66-45 (MIC of carbapenem): 0.25 µg/mL and 0.125 µg/mL
[6]; meropenem (MEM) + 25 mg/L Example 26, batches 1-3
  MIC Value in K66-45 (MIC of carbapenem): 0.125 µg/mL and 0.25 µg/mL
[2]
  MIC meropenem + 25 mg/L Example 26 / Example 195: 0.25 µg/mL
[7]
  amplification of the effect of meropenem: > 1000 times
[8]
  time after which CFU drops to below the limit of detection (LOD): 5 to 10 h
VIM-2; 15 nM impaired VIM-2 from Example 207C spiked with 0-100 μM ZnSO4
  enzyme activity restored by ZnSO4: 40%
VIM-2; purified VIM-2, PD-10 column, EDTA at 100 μM
  irreversibility of VIM-2 inhibition: irreversibly inhibits VIM-2; also recorded: irreversibly inhibited
rH glyoxylase II
  interaction with rH glyoxylase II: does not interact with rH glyoxylase II
[4]
  solution stability (adjuvant activity in MIC studies after storage): no loss of activity even after 8 months storage time
[9]; 10-100 mg/kg Example 26 alone, blood and peritoneal fluid
  reduction of the CFU levels compared to vehicle treatment: did not result in reduction of the CFU levels
[9]; Example 26 10 mg/kg s.c. + meropenem 33 mg/kg, mice 5-8
  Score at sampling: 2
[9]; Example 26 10 mg/kg s.c. + vehicle, mice 17-20
  Score at sampling: 2
[9]; Example 26 33 mg/kg s.c. + meropenem 33 mg/kg, mice 9-12
  Score at sampling: 1
[9]; Example 26 33 mg/kg s.c. + vehicle, mice 21-24
  Score at sampling: 1
[9]; Example 26 100 mg/kg s.c. + meropenem 33 mg/kg, mice 13-16
  Score at sampling: 1
[9]; Example 26 100 mg/kg s.c. + vehicle, mice 25-28
  Score at sampling: 1
[9]; blood
  lower CFU levels compared to vehicle treatment: 3.95-4.38 log10
[9]; peritoneal fluid
  lower CFU levels compared to vehicle treatment: 3.57-3.66 log10
[10]
  activity against KPC-producing strains: does not show activity
[11]
  effect of protein binding on inhibitory activity on VIM-2: protein binding is not affecting the inhibitory activity
